Measurements published in patent US20110281815A1, “Parental formulations of gemcitabine derivatives” (CLAVIS PHARMA AS, priority 2009, published 2011).

Assays:
[1] = formulation of elacytarabine model substance with egg PC/egg PG; format: physicochemical
Experimental: (§1) It was investigated if the unexpectedly high concentration (15 mg/mL-60 mg/mL) of the active compound achieved in the formulations described in Examples 1 through 7, and under section 6, Manufacture of the Formulation, was unique to a chemical compound as shown in Formula (I) or if the method was of a more general nature. The structurally similar compound elacytarabine (ara-C-5′-elaidic acid ester) as shown in Formula (II) was used as a related model substance. This model substance contains the same 5′-elaidic acid ester moiety as found in Formula (I) (R1=R3=H, R2=elaidate), and the same cytosine nucleoside ring system. The minor difference between the compounds described in Formula (I) and Formula (II) is the substitution at the 2′ position of the ribose ring for Formula (I) contains geminal fluorines, while Formula (II) contains H and OH.
It is concluded that the Formula I compound provides unexpectedly unique attributes of high loading and stability to the described lipid based formulations.

[2] = rapid deamination to dFdU; cited from earlier work
[3] = buffer, pH 7.4
[4] = human, in vivo
Experimental: (§2) The intravenous formulation of gemcitabine-5′-elaidic acid ester as described in Example 1 was used in a phase I, first in human clinical study. The aims of this study were to determine the safety, toxicity, MTD (Maximum Tolerated Dose) and the RD (Recommended Dose) of gemcitabine-5′-elaidic acid ester, to describe its pharmacokinetic (PK) characteristics, and to assess its preliminary antitumor activity.
(§3) Gemcitabine-5′-elaidic acid ester was administered on days (d) 1, 8 and 15 every 4 week by a 30 min IV infusion. The dose range was from 30 to 1600 mg/m2/d. 43 patients were enrolled and the RD was established at 1250 mg/m^2/d. […] Stabilisation of disease (>3 months) reported in 7 patients (pancreas, colon and ovarian cancer) lasting between 3.5 to >8 months.

[5] = tested on: pancreas, colon and ovarian cancer; test: phase I clinical study: preliminary antitumor activity; format: in vivo, human
Experimental: as §2, §3

[6] = human, in vivo; remark: listed apart in the source
Experimental: as §2, §3
Gemcitabine-5′-elaidic acid ester was detected in plasma up to 24 hrs post-dosing. […] Urinary excretion of the main metabolite, dFdU, during the first 24 hrs was 48-71% of the dose.

[7] = drug load / particle formation of gemcitabine-5′-elaidate in alternative formulations; format: physicochemical
Experimental: Particle formation without the use of phospholipids was not successful. Gemcitabine-5′-elaidic acid ester was dissolved in ethanol in a weight ratio of 1:24. The mixture was stirred until all solid material was dissolved.
The ethanol solution was thereafter injected into a […] with vigorous mixing. The weight ratio of ethanol solution to the glycerol solution was 1:12. The mixture appeared to contain conglomerates as determined by visual inspection.
Mixed micellar formulations with phospholipids and non-ionic surfactants were not successful in preparation of high drug load formulations. Mixed micelles were prepared using a 1:1 weight ratio of egg lecithin:Tween 20 for a final concentration of 50 mg/mL dissolved solids.
Liposomal formulations with egg lecithin and oleic acid were not successful in preparation of high drug load formulations. Liposomes were prepared by means of dissolution of gemcitabine-5′-elaidate, egg lecithin, and oleic acid in a molar ratio of 1:14.4:2 in ethanol. The solvent was evaporated and the residual solids dispersed into 2.6% glycerol in water using an Ultraturrax followed by high pressure homogenization. Stable formulations could be achieved up to 3 mg/mL gemcitabine-5′-elaidate.
as §1

Structure (SMILES): CCCCCCCC/C=C/CCCCCCCC(=O)OC[C@H]1O[C@@H](n2ccc(N)nc2=O)[C@@H](O)[C@@H]1O [Elacytarabine, ara-C-5′-elaidic acid ester]
- Particle size (Z-.avg) ([1]; Egg PC/egg PG, 10 mg/mL): (Z-.avg) 97 nm
- outcome after filtration ([1]; Egg PC/egg PG, 10 mg/mL): Large lipid agglomerates
- outcome upon storage ([1]; Egg PC/egg PG, 15 mg/mL, storage at 2-8° C.): Precipitation
- Final content ([1]; Egg PC/egg PG, elacytarabine concentration 10 mg/mL): Final content 8 mg/ml.
- Final content ([1]; Egg PC/egg PG, elacytarabine concentration 15 mg/mL): 12 mg/mL
- formulation outcome ([1]; Egg PC/egg PG, elacytarabine concentration 20 mg/mL, during homogenisation): Precipitation during
- formulation outcome ([1]; Egg PC/egg PG, elacytarabine concentration 30 mg/mL, during solvent injection): Precipitation
- formulation outcome ([1]; Formula II compound included in excess of 20 mg/mL): precipitation during processing
- formulation outcome on storage ([1]; target concentrations of less than 15 mg/mL, precipitation and agglomeration): unstable during storage

Structure (SMILES): Nc1ccn([C@@H]2O[C@H](CO)[C@@H](O)C2(F)F)c(=O)n1 [gemcitabine, 2′,2′-difluorodeoxy-cytidine]
- half-life of gemcitabine in plasma [2]: approximately 10 minutes

Structure (SMILES): CCCCCCCC/C=C/CCCCCCCC(=O)OC[C@H]1O[C@@H](n2ccc(N)nc2=O)C(F)(F)[C@@H]1O [gemcitabine-5′-elaidic acid ester]
- half life (hydrolytic degradation) [3]: approximately 30 minutes
- most frequent toxicities [4]: nausea, fatigue, vomiting and anorexia
- RD (Recommended Dose) ([4]; iv): 1250 mg/m^2/d
- recommended dose for intravenous administration ([4]; iv): 1250 mg/m^2
- stabilisation of disease (>3 months), number of patients ([5]; 43 patients enrolled, pancreas, colon and ovarian cancer): 7 patients
- reduction in tumor mass ([5]; one patient with ovarian cancer): 28.3%
- AUC for gemcitabine (dFdC) exposure versus intravenous gemcitabine at comparable dose levels [6]: significantly higher
- time detected in plasma post-dosing ([6]; iv): up to 24 hrs
- maximal concentration of gemcitabine-5′-elaidate in mixed micelles ([7]; 1:1 egg lecithin:Tween 20, 50 mg/mL dissolved solids): less than 5 mg/mL
- concentration up to which stable liposomal formulations could be achieved ([7]; egg lecithin and oleic acid liposomes, 2.6% glycerol in water): up to 3 mg/mL
- maximal concentration of gemcitabine-5′-elaidate in mixed micelles ([7]; egg lecithin with glycholic acid as surfactant): 2 mg/mL
- particle formation without phospholipids ([7]; ethanol solution injected into water for injection, homogenization attempted): not capable of forming stable particles
